# Experimental data published in PMC5000617, “Antiproliferative and Pro-Apoptotic Effect of Novel Nitro-Substituted Hydroxynaphthanilides on Human Cancer Cell Lines” (International Journal of Molecular Sciences, 2016).
# Tests used:
# [1] = test system: cyclin E1; test: Western blot of cyclin E1 in MCF-7 cells; format: cell-based, human; conditions: MCF-7, 24 h
# Experimental: (§1) Additionally, the cell cycle analysis allows determining the presence of a subdiploid cell population as a characteristic marker of cells with fractional DNA content. A significant increase (p < 0.001) of the sub-G1 peak was found only after the treatment with 5 µM of compound 2 in THP-1 cells, where an approximately eight-fold increase was observed compared to the drug-free control (Figure 4).
# (§2) For Western blotting, cells were washed with PBS and lysed in lysis buffer (100 mM Tris-HCl, pH = 6.8; 20% glycerol; 1% SDS) containing protease and phosphatase inhibitor cocktails. Protein concentration was measured using Roti®-Quant universal (Carl Roth, Karsruhe, Germany) according to the manufacturer’s instructions. Cell lysates were supplemented with bromophenol blue (final concentration 0.01% (w/v)) and β-mercaptoethanol (final concentration 1% (v/v)) prior to being heated for 5 min at 95 °C. Equal amounts of protein (10 μg) were loaded into a 12% polyacrylamide gel, separated by SDS-polyacrylamide gel electrophoresis and subsequently electrotransferred onto nitrocellulose membranes. Reversible Ponceau S. staining was performed to assess equal sample loading. […] The intensity of bands was semi-quantitatively analysed using the ImageJ software (National Institute of Mental Health, Bethesda, MD, USA).
# [2] = test system: THP-1 cells; test: WST-1 cell proliferation assay, THP-1; format: cell-based, human
# Experimental: (§3) Initially, we examined the effect of six nitro-substituted hydroxynaphthanilides on the proliferation of human leukaemia and breast carcinoma cell lines, using Water Soluble Tetrazolium Salts-1 (WST-1) assay. For such analyses, THP-1 and MCF-7 cells were treated with the compounds at concentrations ranging from 0.5 to 20 μM for 24 h. […] The inhibitory effect of 2 and 6 was statistically significant (p < 0.001) starting from the concentration of 2.5 and 5 μM in THP-1 and MCF-7 cells, respectively. From the concentration-response curves, the IC50 values were determined.
# (§4) THP-1 human monocytic leukemia cell line, MCF-7 human breast adenocarcinoma cells and 3T3-L1 mouse embryonic fibroblast were purchased from the European Collection of Cell Cultures (ECACC, Salisbury, UK). Cells were routinely tested for the absence of mycoplasma (Hoechst 33258 staining method). THP-1 cells were maintained in RPMI 1640 culture medium containing 2 mM L-glutamine; MCF-7 and 3T3-L1 cells were cultured in DMEM medium. All of the culture media were supplemented with 10% heat-inactivated FBS and antibiotics (100 U/mL penicillin and 100 μg/mL streptomycin). Cells were maintained at 37 °C in a humidified atmosphere containing 5% CO2.
# (§5) Cell proliferation was evaluated using Cell Proliferation Reagent WST-1 (2-(4-iodophenyl)-3-(4-nitrophenyl)-5-(2,4-disulfophenyl)-2H-tetrazolium) (Roche Diagnostics, Mannheim, Germany) according to the manufacturer´s instructions. THP-1 (5 × 10^4 cells/100 μL culture medium per well), MCF-7 cells (1 × 10^4 cells/100 μL per well), and 3T3-L1 (2.5 × 10^3 cells/100 μL per well) were cultured in 96-well plates in triplicate. The measurement was performed using Synergy 2 Multi-Mode Microplate Reader (BioTek, Winooski, VT, USA) after 24 h incubation of cells with tested compounds dissolved in DMSO and subsequently in RPMI 1640 to final concentration ranging 0.5–20 μM in the assays. Cell viability was assessed by dye exclusion test. THP-1 (2 × 10^5 cells/mL per well) and MCF-7 cells (8 × 10^4 cells/mL per well) were incubated in 24-well plates with the indicated concentrations of compounds for 24 h. The number of viable cells was determined using hemocytometer after their staining with a solution of erythrosin B (0.1% erythrosin B (w/v) in PBS). The assays were conducted in triplicate. The IC50 and LC50 values were calculated from fitted concentration-response curves using GraphPad Prism 5.00 software (GraphPad Software, San Diego, CA, USA).
# [3] = test system: MCF-7 cells; test: Flow cytometric cell cycle analysis (PI), MCF-7; format: cell-based, human; conditions: MCF-7, 24 h
# Experimental: (§6) In order to determine at which stage of the cell cycle these compounds induce cell growth inhibition, flow cytometric analyses of cell cycle profiles in THP-1 and MCF-7 cell lines were performed. […] Therefore, THP-1 and MCF-7 cells were treated for 24 h with the compounds at concentrations of 2.5, 5, and 10 μM, respectively. In general, we detected a qualitatively similar effect on the distribution of cells in cell cycle phases following the treatment with compounds 2 and 6 in both leukaemia and breast carcinoma cells. […] This was in concert with a simultaneous decrease in the number of cells observed in the S phase compared to the drug-free control, while the percentage of cells in the G2/M phase remained unchanged.
# (§7) THP-1 and sub-confluent MCF-7 cells were treated and subsequently incubated with indicated concentrations of compounds 2 and 6 for 24 h. After the incubation, cells were washed twice in PBS (pH 7.4), fixed in 70% ethanol and stored at −20 °C overnight. Fixed cells were collected by centrifugation, and supernatant was discarded. The cell pellet was washed twice with PBS and incubated with RNaseA (0.02 mg/mL) and 0.05% (v/v) Triton X-100 in PBS for 30 min at 37 °C. After the nuclei staining with propidium iodide (PI) (0.04 mg/mL), the cell cycle distribution was analysed using a flow cytometer Cell Lab Quanta SC (Beckman Coulter, Brea, CA, USA). The quantification of cell cycle distribution was carried out using software MultiCycle AV (Phoenix Flow System, San Diego, CA, USA). A total number of 2 × 10^4 cells was analysed per sample.
# [4] = Erythrosin B dye exclusion viability test, THP-1; format: cell-based; conditions: human, THP-1 cells; erythrosin B exclusion test, 24 h, mean ± SD; read-out: THP-1 LC50
# Experimental: (§8) Subsequently, for the comparison of the antiproliferative and cytotoxic effects we assessed the cell viability after 24 h treatment with compounds 1–6 in both tumour cell lines using the dye exclusion test.
# as §4, §5
# [5] = test system: THP-1 cells; test: Erythrosin B dye exclusion viability test, THP-1; format: cell-based
# Experimental: as §8, §4, §5
# [6] = test system: MCF-7 cells; test: WST-1 cell proliferation assay, MCF-7; format: cell-based, human
# Experimental: as §3, §4, §5
# [7] = test system: cyclin B1; test: Western blot of cyclin B1 in THP-1 cells; format: cell-based, human; conditions: THP-1, 24 h
# Experimental: as §1, §2
# [8] = test system: THP-1 cells; test: Flow cytometric cell cycle analysis (PI), THP-1; format: cell-based, human
# Experimental: as §6, §7
compound,measurement,setting,value
"O=C(Nc1cccc([N+](=O)[O-])c1)c1cc2ccccc2cc1O [Compound 2, 3-hydroxy-N-(3-nitrophenyl)naphthalene-2-carboxamide]",expression of cyclin E1,[1],dose-dependent decrease in expression of cyclin E1
same,IC50,"[2]; Homo sapiens, THP-1, WST-1, 24 h, 0.5-20 μM, mean ± SD",3.06 ± 0.206 µM
same,effect on cell proliferation,"[2]; THP-1, 0.5-20 μM, 24 h",inhibit cell growth in both cell lines in a dose-dependent manner
same,concentration from which the inhibitory effect on proliferation was statistically significant (p < 0.001),"[2]; THP-1, 24 h",2.5 µM
same,distribution of cells in cell cycle phases,[3],induced accumulation of cells in G1 phase
same,sub-G1 / sub-diploid population,[3],did not induce any elevation of the sub-G1 peak
same,CC50 at 24 h,[4],7.91 ± 0.24 µM
same,LC50 compared to IC50,[5],2–3 fold
same,IC50,"[6]; Homo sapiens, MCF7, WST-1, 24 h, 0.5-20 μM, mean ± SD",4.61 ± 0.068 µM
same,effect on cell proliferation,"[6]; MCF-7, 0.5-20 μM, 24 h",inhibit cell growth in both cell lines in a dose-dependent manner
same,concentration from which the inhibitory effect on proliferation was statistically significant (p < 0.001),"[6]; MCF-7, 24 h",5 µM
same,total protein levels of cyclin B1,[7],total protein levels of cyclin B1 were not changed
same,increase of sub-G1 peak compared to drug-free control,"[8]; THP-1, 5 µM, 24 h, p < 0.001",approximately eight-fold
same,distribution of cells in cell cycle phases,"[8]; THP-1, 24 h",induced accumulation of cells in G1 phase
